The values that follow are results of earlier work, collected in patent US10590381B2, “Composition for collecting and preserving placental stem cells and methods of using the composition” (Celularity, Inc., priority 2005, dated 2020).

The conditions of data set [1]: Form A: among anhydrous polymorphs; Form E: in aqueous solvent systems.
The conditions of data set [2]: for hygroscopicity: solid polymorphic form; for conversion at higher relative humidities: stressed at higher relative humidities.
For data set [3] the following is noted: Form E: about 125° C. for about five minutes; Form B: 175° C. for about five minutes.

For `Nc1cccc2c1CN(C1CCC(=O)NC1=O)C2=O` (centres unmarked) [Form A, 3-(4-amino-1-oxo-1,3 dihydro-isoindol-2-yl)-piperidene-2,6-dione], the “relative stability among polymorphs” value in data set [1] was “most thermodynamically stable anhydrous polymorph”. For the same molecule, in data set [2], the hygroscopicity entry is on record as “weakly or not hygroscopic”.

As for `Nc1cccc2c1CN(C1CCC(=O)NC1=O)C2=O` (centres unmarked) [Form B, 3-(4-amino-1-oxo-1,3 dihydro-isoindol-2-yl)-piperidene-2,6-dione], the conversion upon heating result in data set [3] was “can convert to Form F”.

Turning to `Nc1cccc2c1CN(C1CCC(=O)NC1=O)C2=O` (centres unmarked) [Form C, 3-(4-amino-1-oxo-1,3 dihydro-isoindol-2-yl)-piperidene-2,6-dione], in data set [2], the hygroscopicity result was “not hygroscopic below about 85% RH” and the “conversion at higher relative humidities” value is recorded as “can convert to Form B at higher relative humidities”.

Turning to `Nc1cccc2c1CN(C1CCC(=O)NC1=O)C2=O` (centres unmarked) [Form D, 3-(4-amino-1-oxo-1,3 dihydro-isoindol-2-yl)-piperidene-2,6-dione], in data set [2], the hygroscopicity entry is on record as “either weakly or not hygroscopic” and the “conversion at higher relative humidities” value is listed as “will typically convert to Form B”.

For `Nc1cccc2c1CN(C1CCC(=O)NC1=O)C2=O` (centres unmarked) [Form E, 3-(4-amino-1-oxo-1,3 dihydro-isoindol-2-yl)-piperidene-2,6-dione], the conversion upon heating result in data set [3] is given as “can convert to Form B”.
